Patent publication US9433663B2, “Mobilization of hematopoietic stem cells” (Children's Hospital Medical Center, priority 2008, dated 2016)

How the values were obtained:
Cdc42 [1] = biological target: Cdc42 (Mus musculus, UniProt P60766); assay: Cdc42 activity (effector pulldown) in primary murine fibroblasts; format: cell-based; parameters: endogenous in cells; host or cells: murine low density bone marrow (LDBM) cells; settings: Cdc42GAP^−/− primary murine fibroblasts
Excerpt: To investigate the Cdc42-dependent cytoskeleton rearrangement, Swiss 3T3 fibroblasts were used since it was abundantly elaborated in Swiss 3T3 fibroblats that bradykinin induces actin filopodia formation through activating Cdc42, whereas PDGF activates Rac1 and induces Rac-mediated membrane lamellipoidia, and LPA responsible for RhoA activation, eliciting RhoA-medicated formation of actin stress fibers and focal adhesion assembly (Ridley, A. J. et al. Cell 70, 401-410 (1992); Ridley, A. J. et al. Cell 70, 389-399 (1992); Kozma, R. et al. Mol Cell Biol 15, 1942-1952 (1995)).
To analyze the effects of CASIN on the formation of active GTP-bound Cdc42, RhoA, and Rac1, effector pulldown assays were carried out as described previously. Cdc42GAP^−/− MEF, LDBM, CD34^+ hCB cells were treated with CASIN at doses of 5-20 μM in parallel with vehicle control for 2 hrs after overnight starvation, and stimulated with cytokines subsequently. And then cells were lysed in a buffer containing 20 mM Tris-HCL (pH 7.6), 100 mM NaCl, 1% Triton X-100, 10 mM MgCl2, 2 mM NaF, and Protease inhibitor cocktail (Roche Diagnostics). Lysates were incubated with GST-P21-binding domain of PAK1 for RAC1-GTP and Cdc42-GTP, and GST-RBD domain of Rhotekin for RhoA-GTP respectively. […]

[2] = system: primitive human hematopoietic cells (CD45+CD34+CD38−); assay: Example 7 mobilization of human HSC/Ps in NOD-SCID model; format: in vivo, NOD-SCID mice transplanted with CD34+ HCB cells; settings: flow cytometry
Excerpt: The mobilization effects of CASIN on human HSC/Ps using an established preclinical in vivo mouse model are examined. […] This reconstituting population of human hematopoietic cells is operationally defined as SCID-repopulating cells (SRCs), and accordingly represents candidate human HSCs.
Primitive CD34+ human neonatal umbilical cord blood cells are transplanted into sublethally irradiated recipients. Around 10-week posttransplantation, human multilineage repopulating capacity of transplanted HSCs is examined using flow cytometry for surface markers representing human lymphoid (CD19, CD20), myeloid (CD15, CD33) and primitive (CD34, CD38) hematopoietic subsets. […] To further characterize the effect of CASIN on mobilization of primitive human HSC mobilization, progenitor potential is determined using functional clonogenic assays of hematopoietic colony-forming units (CFUs) derived from HPCs33. Numbers of CFUs are counted posinjection of CASIN treatment, in comparison with control medium and G-CSF administration.

C57Bl/6 mice = assay: mobilization of colony-forming progenitors to peripheral blood, CFU-C assay; format: in vivo; settings: intraperitoneal 2.4 mg/Kg, 40 hrs post administration, in comparison to vehicle control
Method: Whether CASIN administration can induce mobilization of HSC/Ps to peripheral blood of C57Bl/6 mice, mimicking the phenotype observed in Cdc42 conditional knockout mice, was evaluated. First of all, mobilization of hematopoietic progenitor cells was examined by CFU-C assays functionally (FIG. 3a). […] Secondarily, to further explore the ability of CASIN to mobilize LT-HSC which is crucial for long-term repopulation of the mobilized cells, serial transplantations were carried out, where 20 million PB from CASIN-mobilized C57Bl/6 mice was transplanted into primary recipient of NOD/SCID mice, and subsequent secondary and tertiary transplants were finished as well using prior BMs (FIG. 3c). Donor chimerisms were assessed by using H2K^b congenic marker which is positive for donors of C57Bl/6 strain and negative for recipients of NOD/SCID strain. […] Therefore, the studies show CASIN can efficiently mobilize colony-forming hematopoietic progenitors and LT-HSCs with self-renewal and multi-lineage differentiation capacity. Thirdly, to further investigate the potential of CASIN to vacate the BM niche after mobilization, six-color staining of the BM cells was performed from C57Bl/6 mice with or without CASIN treatment followed by FACS analysis. […] Therefore, a transient decrease in BM and a concomitant increase in peripheral organs of HSCs would be beneficial to facilitating the subsequent HSC transplantation.
To determinate the hematopoietic progenitor content in the PB of mobilized C57Bl/6 mice, colony-forming unit assay was performed as described previously. Briefly, 200 ul PB was plated in triplicate into methylcellulose (MethocultM3434; StemCell Technology, Vancouver, BC, Canada). Colonies were then counted 7 d later.

[3] = system: C57Bl/6, C3H/HeJ and DBA/2 mice; assay: Example 7 HPC mobilization in comparison and combination with G-CSF; settings: mouse, in vivo
Method: Broad interindividual variability exists in mobilization of HSC/Ps in different strains of mice and man. In some patients, G-CSF is a poor mobilizer. Therefore, the mobilizing capability of CASIN in comparison with G-CSF is evaluated, and in combination with G-CSF, in strains of mice that were reported to differ in responsiveness to G-CSF. Besides C57Bl/6, included in this set of experiments are C3H/HeJ and DBA/2 mice which respond very well to the mobilizing effects of G-CSF compared with C57Bl/6 mice. For each strain of mice, four groups are divided according to regimens used for mobilization: (1) Control medium; (2) CASIN administration; (3)G-CSF: twice a day for 2 days (4) G-CSF plus CASIN administration. Mice are bled 18 h after the last injection, and blood is plated in triplicate for CFU-C assay. Numbers of HPCs in CFU-E, BFU-E, CFU-GM, and CFU-GEMM are calculated per ml of blood later on reflecting the mobilization capacity of different regimens on HPCs.

[4] = system: HSCs (IL7Ra^−Lin^−Sca-1^+c-Kit^+) in the BM; assay: six-color FACS of BM HSPC compartments after treatment; format: in vivo; settings: after CASIN injection, C57Bl/6 mice
Method: Whether CASIN administration can induce mobilization of HSC/Ps to peripheral blood of C57Bl/6 mice, mimicking the phenotype observed in Cdc42 conditional knockout mice, was evaluated. First of all, mobilization of hematopoietic progenitor cells was examined by CFU-C assays functionally (FIG. 3a). […] Secondarily, to further explore the ability of CASIN to mobilize LT-HSC which is crucial for long-term repopulation of the mobilized cells, serial transplantations were carried out, where 20 million PB from CASIN-mobilized C57Bl/6 mice was transplanted into primary recipient of NOD/SCID mice, and subsequent secondary and tertiary transplants were finished as well using prior BMs (FIG. 3c). Donor chimerisms were assessed by using H2K^b congenic marker which is positive for donors of C57Bl/6 strain and negative for recipients of NOD/SCID strain. […] Therefore, the studies show CASIN can efficiently mobilize colony-forming hematopoietic progenitors and LT-HSCs with self-renewal and multi-lineage differentiation capacity. […]
To immunophenotypically profile the multi-compartments of HSPCs in BM, FACS analysis of six-color staining was carried out as previously. […] The sub-compartments of HSC, LT-HSC, ST-HSC, and CLP were quantified accordingly.

Cdc42 [5] = biological target: Cdc42 (Homo sapiens, UniProt P60953); assay: nucleotide exchange: intersectin-induced association of mant-GDP with Cdc42; format: biochemical; settings: FIG. 1b
Excerpt: For example, even at 10 times the IC50 of Cdc42, a 50% inhibition of the association of mant-GDP with Rac or Rho was not achieved.

Cdc42 (Homo sapiens, UniProt P60953), sequence (P60953 whole entry, species assumed): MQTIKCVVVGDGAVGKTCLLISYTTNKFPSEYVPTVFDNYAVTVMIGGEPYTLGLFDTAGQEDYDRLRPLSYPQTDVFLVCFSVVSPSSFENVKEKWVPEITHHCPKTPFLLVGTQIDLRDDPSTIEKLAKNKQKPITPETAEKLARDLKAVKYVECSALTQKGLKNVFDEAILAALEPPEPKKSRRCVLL
Cdc42 (Mus musculus, UniProt P60766), sequence (P60766 whole entry): as the sequence (P60953 whole entry, species assumed) above

OCCNC1CCCc2c1[nH]c1ccc(-c3ccccc3)cc21 (stereo not drawn) [CASIN]
Cdc42 activity (Cdc42 [1]): dose-dependently inhibited | frequency and total number of primitive human hematopoietic cells (CD45+CD34+CD38−) in peripheral blood [2]: increases significantly | mobilization of colony-forming progenitors to the peripheral blood (C57Bl/6 mice): more than six-fold | mobilization in comparison and in combination with G-CSF [3]: more effective mobilization than G-CSF | number of genotypic HSCs (IL7Ra^−Lin^−Sca-1^+c-Kit^+) in the BM [4]: decreased significantly | association of mant-GDP with Cdc42 induced by intersectin (Cdc42 [5]): dose-dependent inhibition
